Reference: US11415579B2, “Assay for measuring a rate of reaction between a target and a ligand candidate” (Imperial College Innovations Ltd., priority 2016, dated 2022)

Key:
Cdk2(T182C) (C177A) = biological target: T1, Cdk2(T182C) (C177A) (Homo sapiens, UniProt P24941, C177A/T182C); experiment: Kinetic thiol consumption assay with Cdk2 mutant T182C; format: binding; design: key to Rate enhancement, Cdk2 T182C: rate constant with Cdk2 ÷ rate constant with model thiol (fold); conditions: additional mutation C177A; for Rate constant with Cdk2 T182C: Protein: Cdk2, cysteine position T182C, in h^-1
T1 construct: poly-histidine; made in house; host or cells: E. coli
Procedure, shortened: (§1)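 5 μM thiol, degassed phosphate pH 8, 2% v/v immobilized TCEP beads; 1 h RT; fluorescence ex 380/em 470 nm; normalized vs DMSO/thiol-only; first-order exponential decay fit → rate constant; Cdk2 k / model-thiol k = rate enhancement per acrylamide.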

Cdk2[C177A, F80C, K278C] = biological target: T2, Cdk2[C177A, F80C, K278C] (Homo sapiens, UniProt P24941, C177A/F80C/K278C); experiment: Kinetic thiol consumption assay with mutant Cdk2 as model thiol; format: binding; design: unit not given here; conditions: 500 μM ligand, 5 μM thiol, phosphate buffer pH 8
T2 construct: poly-histidine; made in house; host or cells: E. coli
Procedure, shortened: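 Model thiol: His-tagged human Cdk2 C177A/F80C/K278C (two engineered surface cysteines), E. coli-expressed, 5 μM in degassed phosphate buffer pH 8 with immobilized TCEP beads (2% v/v). Fluorescence (ex/em 380/470 nm) followed over time at room temperature, normalized to DMSO/thiol control. First-order decay fit gives rate constants.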

Cdk2(N272C) (C177A) = biological target: T3, Cdk2(N272C) (C177A) (Homo sapiens, UniProt P24941, C177A/N272C); experiment: Kinetic thiol consumption assay with Cdk2 mutant N272C; format: binding; design: key to Rate enhancement, Cdk2 N272: rate constant with Cdk2 ÷ rate constant with model thiol (fold); conditions: for Rate enhancement, Cdk2 N272: Cdk2 N272, additional mutation C177A; for Rate constant with Cdk2 N272C: Protein: Cdk2, cysteine position N272C, additional mutation C177A, in h^-1
T3 construct: poly-histidine; made in house; host or cells: E. coli
Procedure, shortened: as §1

Cdk2(H71C) (C177A) = biological target: T4, Cdk2(H71C) (C177A) (Homo sapiens, UniProt P24941, C177A/H71C); experiment: Kinetic thiol consumption assay with Cdk2 mutant H71C; format: binding; design: key to Rate enhancement, Cdk2 H71C: rate constant with Cdk2 ÷ rate constant with model thiol (fold); conditions: additional mutation C177A; for Rate constant with Cdk2 H71C: Protein: Cdk2, cysteine position H71C, in h^-1
T4 construct: poly-histidine; made in house; host or cells: E. coli
Procedure, shortened: as §1

Cdk2(C177A, F80C) = biological target: T5, Cdk2(C177A, F80C) (Homo sapiens, UniProt P24941, C177A/F80C); experiment: Kinetic thiol consumption assay with Cdk2 mutant F80C, incl. kobs versus concentration (Kd, k2); format: binding; design: key to Rate enhancement, Cdk2 F80C: Cdk2 rate constant divided by model-thiol rate constant; conditions: additional mutation C177A; for Rate constant with Cdk2 F80C: Protein: Cdk2, cysteine position F80C, in h^-1
T5 construct: poly-histidine; made in house; host or cells: E. coli
Procedure, shortened: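 His-tagged Cdk2(C177A/F80C) from E. coli or model thiol, 5 μM in degassed phosphate buffer pH 8 with TCEP beads, reacted with acrylamide ligands; fluorescence (ex/em 380/470 nm) normalized to DMSO control and fitted to first-order decay for kobs. Kd and k2 obtained from hyperbolic fit of kobs versus ligand concentration.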

[1] = Kinetic thiol consumption assay with model thiol glutathione; format: physicochemical; design: Rate constant with glutathione (k(GSH)): unit not given here; conditions: for Rate constant with glutathione (k(GSH)): 500 μM ligand, 5 μM thiol, phosphate buffer pH 8; for Rate constant with Glutathione: Protein: Glutathione, cysteine position NA, in h-1
Procedure, shortened: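 GSH 5 μM, degassed phosphate buffer pH 8, TCEP beads 2% v/v; acrylamide added; RT, 1 h; fluorescence ex/em 380/470 nm; normalized to DMSO/thiol control; k from first-order exponential decay fit.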

Cdk2(S276C) (C177A) = biological target: T6, Cdk2(S276C) (C177A) (Homo sapiens, UniProt P24941, C177A/S276C); experiment: Kinetic thiol consumption assay with Cdk2 mutant S276C; format: binding; design: key to Rate enhancement, Cdk2 S276C: rate constant with Cdk2 ÷ rate constant with model thiol (fold); conditions: additional mutation C177A; for Rate constant with Cdk2 S276C: Protein: Cdk2, cysteine position S276C, in h^-1
T6 construct: poly-histidine; made in house; host or cells: E. coli
Procedure, shortened: as §1

Cdk2(R122C) (C177A) = biological target: T7, Cdk2(R122C) (C177A) (Homo sapiens, UniProt P24941, C177A/R122C); experiment: Kinetic thiol consumption assay with Cdk2 mutant R122C; format: binding; design: key to Rate enhancement, Cdk2 R122C: rate constant with Cdk2 ÷ rate constant with model thiol (fold); conditions: additional mutation C177A; for Rate constant with Cdk2 R122C: Protein: Cdk2, cysteine position R122C, in h-1
T7 construct: poly-histidine; made in house; host or cells: E. coli
Procedure, shortened: as §1

Cdk2(S181C) (C177A) = biological target: T8, Cdk2(S181C) (C177A) (Homo sapiens, UniProt P24941, C177A/S181C); experiment: Kinetic thiol consumption assay with Cdk2 mutant S181C; format: binding; design: key to Rate enhancement, Cdk2 S181C: rate constant with Cdk2 ÷ rate constant with model thiol (fold); conditions: additional mutation C177A; for Rate constant with Cdk2 S181C: Protein: Cdk2, cysteine position S181C, in h^-1
T8 construct: poly-histidine; made in house; host or cells: E. coli
Procedure, shortened: as §1

[2] = biological target: T9, human cyclin-dependent kinase 2 (Cdk2) (Homo sapiens, UniProt P24941); experiment: Kinetic thiol consumption assay with wild type Cdk2 (C177); format: binding; design: key to Rate enhancement, Cdk2 WT: k(Cdk2) divided by k(model thiol); Rate constant with Cdk2 (k(Cdk2)): unit not given here; conditions: for Rate constant with Cdk2 (k(Cdk2)): 500 μM ligand, 5 μM thiol, phosphate buffer pH 8; for Rate enhancement, Cdk2 WT: no additional mutations; for Rate constant with Cdk2 WT: Protein: Cdk2, cysteine position WT, in h^-1; for k(Cdk2)/k(Cdk2_mut) rate enhancement: model thiol Cdk2[C177A, F80C, K278C]; for k(Cdk2)/k(GSH) rate enhancement: model thiol glutathione
T9 construct: poly-histidine; made in house; host or cells: E. coli
Procedure, shortened: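 Rate enhancement: first-order decay constant with Cdk2 over that with a model thiol. Thiols (5 μM, degassed phosphate buffer pH 8, immobilized TCEP) were incubated with acrylamides at room temperature, and thiol consumption followed by fluorescence at 380/470 nm, normalized to DMSO control. Cdk2 was His-tagged, E. coli-expressed, with one surface cysteine (C177).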

| SMILES | Rate enhancement, Cdk2 T182C (Cdk2(T182C) (C177A)) | Rate constant with Cdk2 T182C (Cdk2(T182C) (C177A)) | Rate constant with Cdk2[C177A, F80C, K278C] (k(Cdk2_mut)) (Cdk2[C177A, F80C, K278C]) | Rate enhancement, Cdk2 N272 (Cdk2(N272C) (C177A)) | Rate constant with Cdk2 N272C (Cdk2(N272C) (C177A)) | Rate enhancement, Cdk2 H71C (Cdk2(H71C) (C177A)) | Rate enhancement, Cdk2 F80C (Cdk2(C177A, F80C)) | Rate constant with Cdk2 F80C (Cdk2(C177A, F80C)) | Rate constant with glutathione (k(GSH)) [1] | Rate constant with Glutathione [1] | Rate enhancement, Cdk2 S276C (Cdk2(S276C) (C177A)) | Rate constant with Cdk2 S276C (Cdk2(S276C) (C177A)) | Rate enhancement, Cdk2 R122C (Cdk2(R122C) (C177A)) | Rate constant with Cdk2 R122C (Cdk2(R122C) (C177A)) | Rate enhancement, Cdk2 S181C (Cdk2(S181C) (C177A)) | Rate constant with Cdk2 (k(Cdk2)) [2] | Rate enhancement, Cdk2 WT [2] | Rate constant with Cdk2 WT [2] | k(Cdk2)/k(Cdk2_mut) rate enhancement [2] | k(Cdk2)/k(GSH) rate enhancement [2] | other results |
| --- | --- | --- | --- | --- | --- | --- | --- | --- | --- | --- | --- | --- | --- | --- | --- | --- | --- | --- | --- | --- | --- |
| C=CC(=O)N(c1ccc2c(c1)OCCO2)C1CC1 [CA-167] | 2.016 | 0.04668 | 0.00264 | 0.2702 | 0.006256 | 0.1567 | 0.289 | 0.00669 | 0.01009 | 0.02315 | 0.3514 | 0.008135 | 0.1363 | 0.003155 | 0.343 | 0.01101 | 0.4756 | 0.01101 | 4.177 | 1.091 | Rate constant with Cdk2 H71C (Cdk2(H71C) (C177A)): 0.003628; Rate constant with Cdk2 S181C (Cdk2(S181C) (C177A)): 0.00794 |
| C=CC(=O)N1CCC2CCC(C1)N2C (stereo not shown) [CA-143] | 2.359 | 0.06917 | 0.00505 | 0.4942 | 0.01449 | 0.08025 | 0.1014 | 0.002972 | 0.0293 | 0.02932 | 0.6344 | 0.0186 | 0.2049 | 0.006009 | 0.9178 | 0.01115 | 0.3803 | 0.01115 | 2.207 | 0.3805 | Rate constant with Cdk2 H71C (Cdk2(H71C) (C177A)): 0.002353; Rate constant with Cdk2 S181C (Cdk2(S181C) (C177A)): 0.02691 |
| C=CC(=O)N(C(=O)C=C)c1c2ccccc2n2c(C)nc3ccccc3c12 [CA-152] | 0 | – | 3.059 | 0 | – | 0 | 0.1587 | 1.27 | 0.2501 | 8.003 | 0 | – | 0 | – | 0.9118 | 0.8358 | 0.4371 | 3.498 | 0.2732 | 3.342 | Rate constant with Cdk2 S181C (Cdk2(S181C) (C177A)): 7.297 |
| C=CC(=O)NC1C2C3CCC(C3)C12 (stereo not shown) [CA-097] | 1.447 | 0.01424 | 0.00407 | 0.5898 | 0.005802 | 0.1566 | 0.1887 | 0.001856 | 0.00533 | 0.009838 | 0.8141 | 0.008009 | 0.3499 | 0.003442 | 0 | 0.00152 | 0.1544 | 0.001519 | 0.3735 | 0.2854 | Rate constant with Cdk2 H71C (Cdk2(H71C) (C177A)): 0.001541 |
| C=CC(=O)NCCCN(C(=O)C1CCC1)C1CC1 [CA-060] | 1.619 | 0.00832 | 0.00223 | 3.677 | 0.01889 | 0 | – | ~0.0004944 | 0.00283 | 0.005138 | 1.112 | 0.005711 | 0.4675 | 0.002402 | 0.7812 | 0.00226 | 0.7143 | 0.00367 | 1.013 | 0.7988 | Rate constant with Cdk2 S181C (Cdk2(S181C) (C177A)): 0.004014 |
| C=CC(=O)NC(C)c1ccc2c(c1)OCO2 (stereo not shown) [EL-1051] | 0.6691 | 0.003057 | 0.00361 | 0.3701 | 0.001691 | 0 | 0.1378 | 0.0006296 | 0.00461 | 0.004569 | 1.226 | 0.005603 | 0.3414 | 0.00156 | 0.6373 | 0.00298 | 0.6621 | 0.003025 | 0.8251 | 0.6464 | Rate constant with Cdk2 S181C (Cdk2(S181C) (C177A)): 0.002912 |
| C=CC(=O)N1CCCCCC1c1cccs1 (stereo not shown) [EL-1063] | 9.081 | 0.03082 | 0.00461 | 1.172 | 0.003977 | 1.092 | 2.756 | 0.009353 | 0.00353 | 0.003394 | 0.5613 | 0.001905 | 0.7319 | 0.002484 | 1.561 | 0.00274 | 0.8082 | 0.002743 | 0.5955 | 0.7775 | Rate constant with Cdk2 H71C (Cdk2(H71C) (C177A)): 0.003705; Rate constant with Cdk2 S181C (Cdk2(S181C) (C177A)): 0.005297 |
